Tests used:
[1] = system: E. faecalis ATCC 29212; assay: MIC, NCCLS broth microdilution; format: cell-based, Enterococcus faecalis; settings: C = E. faecalis ATCC 29212
Procedure, shortened: (§1)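 Compounds were serially diluted in broth and tested against each strain according to NCCLS guidelines, with MIC taken as the endpoint. C. albicans was assayed per the Manual of Clinical Microbiology.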

[2] = system: M. catarrhalis (ATCC 25238); assay: MIC, NCCLS broth microdilution; format: cell-based, Moraxella (now Branhamella) catarrhalis; settings: H = M. catarrhalis (ATCC 25238)
Procedure, shortened: (§2)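 MIC values come from microtiter-plate broth microdilution run to NCCLS standards (M7-A4, M11-A4, M27-T). For C. albicans ATCC 38247, the antifungal procedure of the 1995 Manual of Clinical Microbiology was used instead.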

[3] = system: C. albicans ATCC 38247; assay: MIC, antifungal assay; format: cell-based, Candida albicans; settings: F = C. albicans ATCC 38247
Procedure, shortened: as §2

[4] = system: S. aureus ATCC 27660; assay: MIC, NCCLS broth microdilution; format: cell-based, Staphylococcus aureus; settings: B = S. aureus ATCC 27660 (MRSA)
Procedure, shortened: as §2

[5] = system: S. aureus ATCC 13709; assay: MIC, NCCLS broth microdilution; format: cell-based, Staphylococcus aureus; settings: A = S. aureus ATCC 13709 (MSSA)
Procedure, shortened: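 Minimal inhibitory concentration determined by NCCLS broth microdilution in microtiter plates per documents M7-A4, M11-A4 and M27-T. S. aureus ATCC 27660 is a methicillin-resistant strain. The antifungal test on C. albicans followed the method recommended in the Manual of Clinical Microbiology (1995).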

[6] = system: B. cereus ATCC 11778; assay: MIC, NCCLS broth microdilution; format: cell-based, Bacillus cereus; settings: D = B. cereus ATCC 11778
Procedure, shortened: as §2

[7] = system: S. pneumoniae ATCC 49619; assay: MIC, NCCLS broth microdilution; format: cell-based, Streptococcus pneumoniae; settings: E = S. pneumoniae ATCC 49619
Procedure, shortened: as §1

[8] = system: E. coli ATCC 25922; assay: MIC, NCCLS broth microdilution; format: cell-based, Escherichia coli; settings: G = E. coli ATCC 25922
Procedure, shortened: as §1

SMILES | Minimum Inhibitory Concentration (MIC) [1] | Minimum Inhibitory Concentration (MIC) [2] | Minimum Inhibitory Concentration (MIC) [3] | Minimum Inhibitory Concentration (MIC) [4] | Minimum Inhibitory Concentration (MIC) [5] | Minimum Inhibitory Concentration (MIC) [6] | Minimum Inhibitory Concentration (MIC) [7] | Minimum Inhibitory Concentration (MIC) [8] [µg/mL]
CCN(CCO)CCNC(=O)c1nc(NC(=O)c2ccc(NC(=O)c3cc(NC(=O)c4cc5ccccc5cn4)cn3C)cc2)cn1C [Compound A-32] | +++ (MIC ≦ 4 μg/mL) | +++ (MIC ≦ 4 μg/mL) | >32 µg/mL | +++ (MIC ≦ 4 μg/mL) | +++ (MIC ≦ 4 μg/mL) | +++ (MIC ≦ 4 μg/mL) | +++ (MIC ≦ 4 μg/mL) | >32
Cn1cc(NC(=O)c2cc3ccccc3cn2)cc1C(=O)Nc1ccc(C(=O)Nc2cn(C)c(C(=O)NCCN3CCC(OC(=O)CCN4CCOCC4)CC3)n2)cc1 [Compound A-59] | +++ (MIC ≦ 4 μg/mL) | +++ (MIC ≦ 4 μg/mL) | >32 µg/mL | +++ (MIC ≦ 4 μg/mL) | +++ (MIC ≦ 4 μg/mL) | +++ (MIC ≦ 4 μg/mL) | +++ (MIC ≦ 4 μg/mL) | >32
Cn1cc(NC(=O)c2cc3ccccc3cn2)cc1C(=O)Nc1ccc(C(=O)Nc2cn(C)c(C(=O)NCCNCCCO)n2)cc1 [Compound A-43] | +++ (MIC ≦ 4 μg/mL) | >32 µg/mL | >32 µg/mL | +++ (MIC ≦ 4 μg/mL) | +++ (MIC ≦ 4 μg/mL) | +++ (MIC ≦ 4 μg/mL) | +++ (MIC ≦ 4 μg/mL) | >32
Cn1cc(NC(=O)c2cc3ccccc3cn2)cc1C(=O)Nc1ccc(C(=O)Nc2cn(C)c(C(=O)NCCN3CCC(OC(=O)CNS(=O)(=O)O)CC3)n2)cc1 [Compound A-68] | +++ (MIC ≦ 4 μg/mL) | >32 µg/mL | >32 µg/mL | +++ (MIC ≦ 4 μg/mL) | +++ (MIC ≦ 4 μg/mL) | +++ (MIC ≦ 4 μg/mL) | + (12 ≦ MIC ≦ 32 μg/mL) | >32
COCCCNCCNC(=O)c1nc(NC(=O)c2ccc(NC(=O)c3cc(NC(=O)c4cc5ccccc5cn4)cn3C)cc2)cn1C [Compound A-39] | +++ (MIC ≦ 4 μg/mL) | >32 µg/mL | >32 µg/mL | +++ (MIC ≦ 4 μg/mL) | +++ (MIC ≦ 4 μg/mL) | +++ (MIC ≦ 4 μg/mL) | +++ (MIC ≦ 4 μg/mL) | >32
Cn1cc(NC(=O)c2cc3ccccc3cn2)cc1C(=O)Nc1ccc(C(=O)Nc2cn(C)c(C(=O)NCCN3CCC(OC(=O)CNC(=O)OC(C)(C)C)CC3)n2)cc1 [Compound A-66] | +++ (MIC ≦ 4 μg/mL) | +++ (MIC ≦ 4 μg/mL) | >32 µg/mL | +++ (MIC ≦ 4 μg/mL) | +++ (MIC ≦ 4 μg/mL) | +++ (MIC ≦ 4 μg/mL) | +++ (MIC ≦ 4 μg/mL) | >32
Cn1cc(NC(=O)c2cc3ccccc3cn2)cc1C(=O)Nc1ccc(C(=O)Nc2cn(C)c(C(=O)NCCNCCOCCOCCN)n2)cc1 [Compound A-42] | +++ (MIC ≦ 4 μg/mL) | >32 µg/mL | + (12 ≦ MIC ≦ 32 μg/mL) | +++ (MIC ≦ 4 μg/mL) | +++ (MIC ≦ 4 μg/mL) | ++ (4 < MIC < 12 μg/mL) | + (12 ≦ MIC ≦ 32 μg/mL) | >32
CCOCCCNCCNC(=O)c1nc(NC(=O)c2ccc(NC(=O)c3cc(NC(=O)c4cc5ccccc5cn4)cn3C)cc2)cn1C [Compound A-31] | ++ (4 < MIC < 12 μg/mL) | >32 µg/mL | + (12 ≦ MIC ≦ 32 μg/mL) | +++ (MIC ≦ 4 μg/mL) | +++ (MIC ≦ 4 μg/mL) | ++ (4 < MIC < 12 μg/mL) | +++ (MIC ≦ 4 μg/mL) | >32

Reference: patent US7642245B2, “Antibacterial compounds having a (pyrrole carboxamide)-(benzamide)-(imidazole carboxamide) motif” (Oscient Pharmaceuticals Corporation, priority 2002, dated 2010)
